In US20100074975A1, “Pharmaceutical composition for the prevention and treatment of liver disease comprising a lonicera caerulea L. Var. Edulis extract” (priority 2005, published 2010):

Experiments:
HepG2 cells [1] = conditions: 48 hrs
Experimental: HepG2 cells were seeded in a 96-well plate at a density of 1×10^4 cells per well and incubated in a culture medium supplemented with 10% FBS for 16 hrs. After the 96-well plate was washed with physiological saline, ethyl alcohol, which was diluted in a culture medium in amounts of 0, 0.5, 1.0, 1.5 and 2.0% (v/v), was added to each well in which HepG2 cells were cultured. After incubation for 48 hrs, the cell number in each well was measured using a SRB method.
The culture medium was removed, and the 96-well plate was washed with physiological saline. The cells in each well were then fixed with 70% acetone for 20 min. The fixed cells were dried, stained with an SRB solution for 30 min, and washed with a 1% acetic acid solution five times to eliminate unbound SRB. After the cells were dried again, 10 mM Tris was added to the cells to dissolve cellular proteins and unbound SRB, and absorbance was measured at 562 nm using a spectrophotometer. The results were expressed as a percentage by comparing the absorbance of each well treated with ethyl alcohol with that of a control well not treated with ethyl alcohol (FIG. 2).

HepG2 cells [2] = experiment: Restoration of growth of cells whose growth is suppressed by ethyl alcohol (SRB method); format: cell-based, human; conditions: HepG2, 1.5% ethyl alcohol for 24 hrs
Experimental: After the 96-well plate was washed with physiological saline, ethyl alcohol, which was diluted in culture medium in 1.5% (v/v), was added to each well in which HepG2 cells were cultured. Cell damage was induced using ethyl alcohol for 24 hrs. Thereafter, the culture medium containing ethyl alcohol was removed, and the extract from L. caerulea fruits, which was diluted in culture medium in amounts of 0, 0.125, 0.25, 0.5 and 1 mg/ml, was added to each well. […] Cells in each well were then fixed with 70% acetone for 20 min. […] The absorbance of a well treated with ethyl alcohol alone and the absorbance of each well treated with alcohol plus the extract from L. caerulea fruits were compared with that of a control well which was not treated with ethyl alcohol or with the extract from L. caerulea fruits (FIG. 3).
The reduced absorbance increased in a manner that was dependent on the concentrations of the extract from L. caerulea fruits when the extract was administered at up to 0.5 mg/ml to the well treated with ethyl alcohol.
Thus, the degree of restoration of ethyl alcohol-induced cell growth damage by administration of the extract from L. caerulea fruits was calculated according to Equation 1, and the results are given in Table 1, below. […]

For `CCO` [ethyl alcohol], the “effect on cell number” value (HepG2 cells [1]; HepG2, ethyl alcohol at concentrations of 1.5% or higher) was “reduced cell number”, the “effect on cell growth” value (HepG2 cells [1]; HepG2, ethyl alcohol at concentrations of up to 1% (v/v)) was “stimulate cell growth” and the “absorbance reduced in comparison with the well not treated with ethyl alcohol” value (HepG2 cells [2]) was 22%.
